Measurements taken from patent US12281304B2, “Compositions and methods for treating and preventing muscular disorders and dystrophies, steroid side effects, and inflammation” (Children's National Medical Center, priority 2018, dated 2025).

Tested on: miRNAs in diaphragm muscle of mdx mice
Experiment: TaqMan low-density array (TLDA) miRNA profiling of diaphragm, discovery set (prophylactic mdx trial)
Type: in vivo, mouse
Conditions: mdx diaphragm, vs untreated mdx; Pred 5 mg/kg, Vam 15 mg/kg
Excerpt: Archival muscle samples (diaphragm) from two separate preclinical studies were obtained, with each trial showing a significant benefit from both prednisolone and vamorolone drug treatments (23). Prednisolone was used because it is the active form of prednisone, the current DMD standard of care. The first, “discovery set” of diaphragm muscles was from a prophylactic trial design where 2-week old (postnatal day 15) mdx or wild type control mice received oral dosing for 6 weeks with vehicle (cherry syrup), prednisolone (5 mg/kg), or vamorolone (15 mg/kg) as previously reported (23). The second, “validation set” of diaphragm muscles was from an extended trial in older mice where mdx or wild type mice were subjected to treadmill running to unmask mild phenotypes. Mice in this validation set were treated with either vehicle, prednisolone (5 mg/kg) or vamorolone (45 mg/kg) for four months beginning at two months of age (23). At the endpoint of each trial, diaphragm muscles were harvested and frozen in liquid nitrogen-cooled isopentane.
We extracted total RNA from 5 diaphragm muscles per treatment group in the discovery set of samples from 8-week old mice. RNA was extracted using a modified TRIzol protocol with isopropanol precipitation at −20° C. overnight. This RNA was reverse transcribed to cDNA using a High Capacity cDNA Reverse Transcription Kit with RNase Inhibitor (ThermoFisher; Carlsbad, Calif.), with miRNA-specific Megaplex RT Primers, Rodent Pools Set version 3.0 (ThermoFisher; Carlsbad, Calif.). Levels of each of the miRNAs were profiled in the discovery set using TAQMAN Array Rodent MiRNA A+B Cards Set v3.0 (ThermoFisher; Carlsbad, Calif.).
In the discovery set experiments, levels of each miRNA were quantified in TaqMan low-density arrays using ThermoFisher Cloud software with the Relative Quantification Application (ThermoFisher; Carlsbad, Calif.) tool. Data was analyzed by ANOVA with post-hoc comparison of each group to the mdx vehicle-treated group. […] A P-value of P≤0.05 was set as the significance threshold, without adjustment for multiple comparisons. To reduce false-positive discovery in this setting, an evidence-based approach was used to identify efficacy associated miRNAs where 1) results from the multiple groups were cross-referenced, and 2) all candidate miRNAs identified in this discovery set were then assayed in a separate validation set of mice. For the validation set experiments, levels of each individual miRNA were assayed in samples from a second, independent preclinical trial in adult mdx mice. Data from individual TaqMan Assays was quantified using QuantStudio Real-Time PCR version 1.3 software (Applied Biosystems; Foster City, Calif.). The levels of all miRNAs were normalized to the geometric mean of multiple control genes (60, 70). Comparison of groups was made by ANOVA with Holm-Sidak post-hoc test comparing each group to mdx vehicle.
To visualize behavior of miRNAs within individual mice for each group, heat map images were generated. Heat maps were generated using Rq values of TLDA array data exported from the Relative Quantification Application of the ThermoFisher Cloud software (ThermoFisher; Carlsbad, Calif.) tool. Heat maps of miRNA expression were produced using Hierarchical Clustering Explorer Version 3.5 (at www.cs.umd.edu/hcil/multi-cluster/) produced by the Human Computer Interaction Laboratory (University of Maryland; College Park, Md.).
To examine miRNA expression TaqMan low density qPCR array cards were used to profile approximately 750 miRNAs within diaphragm muscle from a discovery set of mice. Samples for this experiment came from a trial that utilized a prophylactic approach (23). Briefly, mdx mice undergo a stage of peak severity characterized by widespread inflammation and necrosis from approximately 3-8 weeks of age, followed by a recovery stage where mice show milder phenotypes (25). […]

C[C@]12C=CC(=O)C=C1CC[C@@H]1[C@@H]2[C@@H](O)C[C@@]2(C)[C@H]1CC[C@]2(O)C(=O)CO [prednisolone]
Rq mmu-miR-214-002306: 0.898 | Rq mmu-miR-215-001200: 0.792 | Rq mmu-miR-218-000521: 0.615 | Rq mmu-miR-221-000524: 0.687 | Rq mmu-miR-222-002276: 0.666 | Rq mmu-miR-223-002295: 0.804 | Rq mmu-miR-296-5p-000527: 1.035 | Rq mmu-miR-301a-000528: 0.687 | Rq mmu-miR-301b-002600: 0.862 | Rq mmu-miR-322-001076: 0.67 | Rq mmu-miR-324-3p-002509: 0.713 | Rq mmu-miR-324-5p-000539: 0.859 | Rq mmu-miR-328-000543: 0.888 | Rq mmu-miR-335-3p-002185: 1.354 | Rq mmu-miR-335-5p-000546: 0.756 | Rq mmu-miR-337-3p-002532: 0.853 | Rq mmu-miR-338-3p-002252: 0.469 | Rq mmu-miR-339-5p-002257: 0.652 | Rq mmu-miR-340-3p-002259: 0.581 | Rq mmu-miR-340-5p-002258: 0.602 | Rq mmu-miR-342-3p-002260: 0.407 | Rq mmu-miR-342-5p-002527: 0.529 | Rq mmu-miR-345-5p-002528: 0.713 | Rq mmu-miR-350-002530: 0.796 | Rq mmu-miR-362-3p-002616: 0.936 | Rq mmu-miR-362-5p-002614: 1.241 | Rq mmu-miR-369-3p-000557: 1.192 | Rq mmu-miR-369-5p-001021: 1.211 | Rq mmu-miR-370-002275: 1.975 | Rq mmu-miR-376a#-002482: 1.351 | Rq mmu-miR-376a-001069: 1.484 | Rq mmu-miR-376b#-002451: 1.084 | Rq mmu-miR-376b-002452: 1.602 | Rq mmu-miR-376c-002450: 0.966 | Rq mmu-miR-379-001138: 1.085 | Rq mmu-miR-380-5p-002601: 1.287 | Rq mmu-miR-381-000571: 1.359 | Rq mmu-miR-382-000572: 1.017 | Rq mmu-miR-383-001767: 0.551 | Rq mmu-miR-384-5p-002602: 0.618 | Rq mmu-miR-409-3p-002332: 1.906 | Rq mmu-miR-410-001274: 1.676 | Rq mmu-miR-411-001610: 1.171 | Rq mmu-miR-431-001979: 1.819 | Rq mmu-miR-433-001028: 2.288 | Rq mmu-miR-434-5p-002581: 1.271 | Rq mmu-miR-450a-5p-002303: 1.051 | Rq mmu-miR-455-002455: 0.612 | Rq mmu-miR-467F-002886: 1.346 | Rq mmu-miR-467a-002587: 0.751 | Rq mmu-miR-467c-002517: 0.992 | Rq mmu-miR-483#-002560: 1.367 | Rq mmu-miR-486-001278: 0.917 | Rq mmu-miR-487b-001285: 1.43 | Rq mmu-miR-489-001302: 0.792 | Rq mmu-miR-491-001630: 0.776 | Rq mmu-miR-493-002519: 2.641 | Rq mmu-miR-494-002365: 1.025 | Rq mmu-miR-495-001663: 1.448 | Rq mmu-miR-497-001346: 0.482 | Rq mmu-miR-500-002606: 0.935 | Rq mmu-miR-501-3p-001651: 0.97 | Rq mmu-miR-503-002456: 0.923 | Rq mmu-miR-511-002549: 0.48 | Rq mmu-miR-532-3p-002355: 1.067 | Rq mmu-miR-532-5p-001518: 1.087 | Rq mmu-miR-540-3p-001310: 0.908 | Rq mmu-miR-541-002562: 1.165 | Rq mmu-miR-542-3p-001284: 1.123 | Rq mmu-miR-542-5p-002563: 0.96 | Rq mmu-miR-543-001298: 2.644 | Rq mmu-miR-543-002376: 1.81 | Rq mmu-miR-544-002550: 1.001 | Rq mmu-miR-574-3p-002349: 0.667 | Rq mmu-miR-652-002352: 0.626 | Rq mmu-miR-665-002607: 1.683 | Rq mmu-miR-669a-001683: 0.678 | Rq mmu-miR-673-3p-002449: 1.562 | Rq mmu-miR-673-001954: 2.031 | Rq mmu-miR-674#-001956: 0.857 | Rq mmu-miR-674-002021: 0.846 | Rq mmu-miR-675-3p-001941: 1.258 | Rq mmu-miR-682-001666: 0.702 | Rq mmu-miR-690-001677: 0.744 | Rq mmu-miR-706-001641: 0.75 | Rq mmu-miR-708-002341: 0.636 | Rq mmu-miR-720-001629: 0.905 | Rq mmu-miR-802-002029: 0.245 | Rq mmu-miR-805-002045: 1.066 | Rq mmu-miR-1274a-121150_mat: 1.138 | Rq mmu-miR-1941-3p-121130_mat: 2.166 | Rq mmu-miR-1943-121174_mat: 0.831 | Rq mmu-miR-1944-121189_mat: 0.877 | Rq mmu-miR-2146-241082_mat: 1.113 | Rq mmu-miR-30d-000420: 0.701 | Rq rno-miR-1-002064: 0.911 | Rq rno-miR-7#-001338: 0.751 | Rq rno-miR-7a#-002062: 0.863 | Rq rno-miR-20b-001326: 0.491 | Rq rno-miR-29c#-001818: 0.826 | Rq rno-miR-204#-002076: 0.729 | Rq rno-miR-224-000599: 1.144 | Rq rno-miR-345-3p-002061: 0.859 | Rq rno-miR-351-002063: 1.366 | Rq rno-miR-379#-002081: 1.563 | Rq rno-miR-381-001322: 1.107 | Rq rno-miR-489-001353: 0.626 | Rq rno-miR-664-001323: 0.638
